The results in this text go back to US20250295619A1, “Use of Salvianolic Acid E in the Preparation of Drugs Targeting Senescent Cells, Inhibiting Tumors or Extending Lifespan” (Shanghai Institute of Nutrition and Health, Chinese Academy …, priority 2024, published 2025).

The experiment relates to SASP factors. The experiment can be described thus: RNA-seq and GSEA expression profile of BLEO-induced senescent PSC27 cells. Format: cell-based, human. The procedure: To cause cell damage, 50 μg/mL bleomycin (bleomycin, BLEO) was added to the culture medium when PSC27 cells grew to 80% (abbreviated as PSC27-CTRL). After 12 hours of drug treatment, the cells were simply washed 3 times with PBS, left in the culture medium for 7-10 days, and then the subsequent experiments were performed.
Whole-transcriptome sequencing was performed on the primary human prostate stromal cell line PSC27 under different treatment conditions. Total RNA samples were obtained from stromal cells. Their integrity was verified by Bioanalyzer 2100 (Agilent), RNA was sequenced by Illumina HiSeq X10, and gene expression levels were quantified by software package rsem (https://deweylab. github.io/rsem/). Briefly, rRNA was depleted from RNA samples with the RiboMinus Eukaryote Kit (Qiagen, Valencia, CA, USA); and according to the manufacturer's instructions, TruSeq Stranded Total RNA Preparation Kits (Illumina, San Diego, CA, USA) was used to construct a strand-specific RNA-seq library before deep sequencing.
Paired-end transcriptomic reads were mapped to a reference genome (GRCh38/hg38), and reference-annotation was performed from Gencode v27 using the Bowtie tool. Duplicate reads were identified using the picard Tools (1.98) script to mark duplicates (https://github. com/broadinstitute/picard), and only non-duplicate reads were retained. Reference splice junctions were provided by reference transcriptome (Ensembl Build 73). FPKM values were calculated with Cufflinks, and Cufflinks maximum likelihood estimation function was used to call differential gene expression. […]
Based on the data obtained from the preliminary analysis of RNA-seq, after analyzing and comparing each differentially expressed significant gene, the genes were sorted using the “wald statistics” obtained from DESeq2. […] DESeq2 independent filtering was based on the average of normalized read counts to select genes with very low expression levels. […]

“Also recorded” adds a separate entry of the source.

With `O=C(/C=C/c1ccc(O)c(O)c1/C(=C\c1ccc(O)c(O)c1)C(=O)O[C@H](Cc1ccc(O)c(O)c1)C(=O)O)O[C@H](Cc1ccc(O)c(O)c1)C(=O)O` [SAE, salvianolic acid E], the “expression of SASP factors in senescent cells after SAE treatment” value (BLEO-induced senescent PSC27) is “universally reduced; also recorded: generally decreased”. Moreover, the “molecular signatures characterizing SASP expression or NF-κB activation (GSEA)” value (BLEO-induced senescent PSC27 after SAE) is listed as “significant repression”. In addition, the “expression profile of senescent cells” value (RNA-seq, BLEO-induced senescent PSC27) is reported as “significantly altered”.
